Test system: K98450-129-R-PDC multicell spheroids, viability
Experiment: Anticancer human tumor K98450-129-R-PDC patient-derived colon adenocarcinoma cell line growth inhibition [PI3K]
Conditions: for IC50: curve of first compound; for viability, T/C: stronger effect = lower value
Procedure, shortened: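 Multi-cell spheroids combine tumor cells with HUVEC and human MSCs, treated with targeted agents alone or with inavolisib, alpelisib, duvelisib or copanlisib. Concentrations fall in half-log steps from at or near clinical Cmax, or from 10 microM where Cmax is unknown; viability read-out.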

[1] = second compound 0.00316 µM, first compound 0.0316 µM
[2] = second compound 0.00316 µM, first compound 0.1 µM
[3] = second compound 0.01 µM, first compound 0.0316 µM
[4] = second compound 0.01 µM, first compound 0.1 µM
[5] = second compound 0.0316 µM, first compound 0.0316 µM
[6] = second compound 0.0316 µM, first compound 0.1 µM
[7] = second compound 0.1 µM, first compound 0.0316 µM
[8] = second compound 0.1 µM, first compound 0.1 µM
[9] = second compound 0.316 µM, first compound 0.0316 µM
[10] = second compound 0.316 µM, first compound 0.1 µM
[11] = second compound 1 µM, first compound 0.0316 µM
[12] = second compound 1 µM, first compound 0.1 µM
[13] = second compound 0.0316 µM, first compound 0.316 µM
[14] = second compound 0.0316 µM, first compound 1 µM
[15] = second compound 0.0316 µM, first compound 3.16 µM
[16] = second compound 0.0316 µM, first compound 10 µM
[17] = second compound 0.1 µM, first compound 0.316 µM
[18] = second compound 0.1 µM, first compound 1 µM
[19] = second compound 0.1 µM, first compound 3.16 µM
[20] = second compound 0.1 µM, first compound 10 µM
[21] = second compound 0.316 µM, first compound 0.316 µM
[22] = second compound 0.316 µM, first compound 1 µM
[23] = second compound 0.316 µM, first compound 3.16 µM
[24] = second compound 0.316 µM, first compound 10 µM
[25] = second compound 1 µM, first compound 0.316 µM
[26] = second compound 1 µM, first compound 1 µM
[27] = second compound 1 µM, first compound 3.16 µM
[28] = second compound 1 µM, first compound 10 µM
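Further: spheroids exposed to agents for seven days before read-out.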

Cn1ncnc1[C@H]1c2n[nH]c(=O)c3cc(F)cc(c23)N[C@@H]1c1ccc(F)cc1 + COc1c(OCCCN2CCOCC2)ccc2c3n(c(=NC(=O)c4cnc(N)nc4)nc12)CCN3
IC50 (second compound 0.00316 µM): > 0.1 µM | IC50 (second compound 0.01 µM): > 0.1 µM | IC50 (second compound 0.0316 µM): > 0.1 µM | IC50 (second compound 0.1 µM): > 0.1 µM | IC50 (second compound 0.316 µM): > 0.1 µM | IC50 (second compound 1 µM): > 0.1 µM | viability, T/C (second compound 0.00316 µM, first compound 0.000316 µM): 98.6% | viability, T/C (second compound 0.00316 µM, first compound 0.001 µM): 95.2% | viability, T/C (second compound 0.00316 µM, first compound 0.00316 µM): 96.7% | viability, T/C (second compound 0.00316 µM, first compound 0.01 µM): 98% | viability, T/C [1]: 100% | viability, T/C [2]: 92.9% | viability, T/C (second compound 0.01 µM, first compound 0.000316 µM): 91.8% | viability, T/C (second compound 0.01 µM, first compound 0.001 µM): 89.6% | viability, T/C (second compound 0.01 µM, first compound 0.00316 µM): 95.1% | viability, T/C (second compound 0.01 µM, first compound 0.01 µM): 96.9% | viability, T/C [3]: 94.6% | viability, T/C [4]: 91.9% | viability, T/C (second compound 0.0316 µM, first compound 0.000316 µM): 90.1% | viability, T/C (second compound 0.0316 µM, first compound 0.001 µM): 88.7% | viability, T/C (second compound 0.0316 µM, first compound 0.00316 µM): 94.5% | viability, T/C (second compound 0.0316 µM, first compound 0.01 µM): 90.6% | viability, T/C [5]: 89.5% | viability, T/C [6]: 70.1% | viability, T/C (second compound 0.1 µM, first compound 0.000316 µM): 92.3% | viability, T/C (second compound 0.1 µM, first compound 0.001 µM): 85.5% | viability, T/C (second compound 0.1 µM, first compound 0.00316 µM): 88.6% | viability, T/C (second compound 0.1 µM, first compound 0.01 µM): 89.8% | viability, T/C [7]: 89.5% | viability, T/C [8]: 78.6% | viability, T/C (second compound 0.316 µM, first compound 0.000316 µM): 56.6% | viability, T/C (second compound 0.316 µM, first compound 0.001 µM): 63.6% | viability, T/C (second compound 0.316 µM, first compound 0.00316 µM): 64.5% | viability, T/C (second compound 0.316 µM, first compound 0.01 µM): 48.5% | viability, T/C [9]: 59.1% | viability, T/C [10]: 65.4% | viability, T/C (second compound 1 µM, first compound 0.000316 µM): 49.9% | viability, T/C (second compound 1 µM, first compound 0.001 µM): 58% | viability, T/C (second compound 1 µM, first compound 0.00316 µM): 52.8% | viability, T/C (second compound 1 µM, first compound 0.01 µM): 62% | viability, T/C [11]: 56.5% | viability, T/C [12]: 54.1%

CC1(C)CCC(CN2CCN(c3ccc(C(=O)NS(=O)(=O)c4ccc(NCC5CCOCC5)c([N+](=O)[O-])c4)c(Oc4cnc5[nH]ccc5c4)c3)CC2)=C(c2ccc(Cl)cc2)C1 + Cc1nc(NC(=O)N2CCCC2C(N)=O)sc1-c1ccnc(C(C)(C)C(F)(F)F)c1
IC50 (second compound 0.0316 µM): 6.03 µM | IC50 (second compound 0.1 µM): 5.71 µM | IC50 (second compound 0.316 µM): 5.78 µM | IC50 (second compound 1 µM): 5.4 µM | IC50 (second compound 3.16 µM): 5.16 µM | IC50 (second compound 10 µM): 4.66 µM | viability, T/C [5]: 105% | viability, T/C [6]: 101% | viability, T/C [13]: 106% | viability, T/C [14]: 100% | viability, T/C [15]: 98.3% | viability, T/C [16]: 12.2% | viability, T/C [7]: 104% | viability, T/C [8]: 96.9% | viability, T/C [17]: 104% | viability, T/C [18]: 95% | viability, T/C [19]: 92.5% | viability, T/C [20]: 9.67% | viability, T/C [9]: 99.5% | viability, T/C [10]: 95.5% | viability, T/C [21]: 98.6% | viability, T/C [22]: 92.4% | viability, T/C [23]: 93.5% | viability, T/C [24]: 10.5% | viability, T/C [11]: 88.4% | viability, T/C [12]: 94.4% | viability, T/C [25]: 94.9% | viability, T/C [26]: 91% | viability, T/C [27]: 88.4% | viability, T/C [28]: 5.86% | viability, T/C (second compound 3.16 µM, first compound 0.0316 µM): 80.6% | viability, T/C (second compound 3.16 µM, first compound 0.1 µM): 87.4% | viability, T/C (second compound 3.16 µM, first compound 0.316 µM): 86% | viability, T/C (second compound 3.16 µM, first compound 1 µM): 84.3% | viability, T/C (second compound 3.16 µM, first compound 3.16 µM): 83% | viability, T/C (second compound 3.16 µM, first compound 10 µM): 5.29% | viability, T/C (second compound 10 µM, first compound 0.0316 µM): 70% | viability, T/C (second compound 10 µM, first compound 0.1 µM): 73.9% | viability, T/C (second compound 10 µM, first compound 0.316 µM): 72.9% | viability, T/C (second compound 10 µM, first compound 1 µM): 68.5% | viability, T/C (second compound 10 µM, first compound 3.16 µM): 77% | viability, T/C (second compound 10 µM, first compound 10 µM): 5.54%

C=CC(=O)N1CCN(c2nc(=O)n(-c3c(C)ccnc3C(C)C)c3nc(-c4c(O)cccc4F)c(F)cc23)C(C)C1 (stereo unspecified) + CC(Nc1ccc2c(c1)OCCn1cc(N3C(=O)OCC3C(F)F)nc1-2)C(N)=O
IC50 (second compound 0.00316 µM): 3.53 µM | IC50 (second compound 0.01 µM): 3.98 µM | IC50 (second compound 0.0316 µM): 3.99 µM | IC50 (second compound 0.1 µM): 3.02 µM | IC50 (second compound 0.316 µM): 2.2 µM | IC50 (second compound 1 µM): 1.87 µM | viability, T/C [1]: 108% | viability, T/C [2]: 92.8% | viability, T/C (second compound 0.00316 µM, first compound 0.316 µM): 95.1% | viability, T/C (second compound 0.00316 µM, first compound 1 µM): 76.7% | viability, T/C (second compound 0.00316 µM, first compound 3.16 µM): 50.8% | viability, T/C (second compound 0.00316 µM, first compound 10 µM): 31.1% | viability, T/C [3]: 108% | viability, T/C [4]: 95.8% | viability, T/C (second compound 0.01 µM, first compound 0.316 µM): 110% | viability, T/C (second compound 0.01 µM, first compound 1 µM): 83.8% | viability, T/C (second compound 0.01 µM, first compound 3.16 µM): 56.5% | viability, T/C (second compound 0.01 µM, first compound 10 µM): 28.9% | viability, T/C [5]: 107% | viability, T/C [6]: 97.7% | viability, T/C [13]: 95.5% | viability, T/C [14]: 79.7% | viability, T/C [15]: 54.1% | viability, T/C [16]: 31% | viability, T/C [7]: 92.4% | viability, T/C [8]: 100% | viability, T/C [17]: 94.8% | viability, T/C [18]: 82.8% | viability, T/C [19]: 48.8% | viability, T/C [20]: 24.9% | viability, T/C [9]: 88.7% | viability, T/C [10]: 97.7% | viability, T/C [21]: 107% | viability, T/C [22]: 75.4% | viability, T/C [23]: 39.3% | viability, T/C [24]: 25.2% | viability, T/C [11]: 85.6% | viability, T/C [12]: 92.1% | viability, T/C [25]: 83.7% | viability, T/C [26]: 67% | viability, T/C [27]: 35.8% | viability, T/C [28]: 19%
